Data set [1] concerns the target recombinant human sphingosine kinase 1 (Homo sapiens, UniProt Q9NYA1). The conditions noted are these: 10 μM. Here is the method:
Sphingosine kinase assays were performed using fluorescent NBD-dihydrosphingosine[63],[64]. […] Reactions were stopped with 100 μL methanol, and 5 μL amounts were resolved on Silica Gel 60 thin layer chromatography (TLC) plates using butanol:acetic acid:water (3:1:1). The fluorescent NBD-dihydrosphingosine 1-phosphate band was quantified using a BioRad ChemiDoc imaging system with excitation by UV light.
Supplementary Figure 2. […] Activity of recombinant
human sphingosine kinases 1 and 2 (SphK1 and 2) was assessed in the presence of 10 µM
Activity is expressed as a percentage of the vehicle control.

The nature of data set [2]: Plasma P053 concentration after oral dosing, LC-MS/MS. In kind it is in vivo, mice. Here is the method:
Plasma samples (20 μL) were extracted with 200 μL methanol containing 20 pmoles AAL(S)[27] as the internal standard. The mixtures were vortexed, then sonicated in ice water using a Bioruptor (Diagenode) for 2 min at 30 s intervals. Extracts were centrifuged at 1400 rpm for 20 min, 4 °C, to clear debris. Supernatants were transferred to 5 mL glass tubes. The remaining insoluble material was re-extracted with 1 mL 80% methanol as above, and the supernatant combined with the first extract. The extracts were evaporated under vacuum (Savant SC210 SpeedVac, Thermo Scientific). Dried extracts were reconstituted in 200 μL of 80% methanol/0.2% formic acid and stored at −20 °C. On the day of analysis, the extracts were vortexed thoroughly and centrifuged at 300 × g for 20 min before transferring 100 μL of the supernatant to glass HPLC vials.
LC-MS/MS was performed on a TSQ Quantum Access triple quadrupole mass spectrometer in positive ion mode, coupled to an Accela UPLC system (Thermo Scientific). Extracts (20 μL) were separated on a 2 × 100 mm Eclipse XDB-C8 column with 1.8 μm particle size (Agilent Technologies), using a 7.5 min binary HPLC gradient: 0 min, 70% B ([…]); 1.5 min, 70% B; 3.5 min, 95% B; 4 min, 95% B; 4.5 min, 70% B; 7.5 min 70% B. Mobile phase A: 2 mM ammonium formate/1% formic acid in water; mobile phase B: 1 mM ammonium formate/1% formic acid in methanol. The flow rate was 0.4 mL min^−1, increasing to 0.5 mL min^−1 from 5–7 min, and column oven 30 °C. […] Visualisation and quantification of peaks was performed using Thermo Fisher’s XCalibur software v2.2.

A further data set has as its system C57BL6/J mice. Briefly: Body composition (EchoMRI) and fat pad weights in mice on chow or HFD. In kind it is in vivo. Here is the method: Male C57BL6/J mice were obtained from the Animal Resources Centre in Perth (WA, Australia). […] Treatment was commenced at the same time as mice were randomised to dietary groups. The experiments were approved by the UNSW animal care and ethics committee (ACEC 15/48B), and followed guidelines issued by the National Health and Medical Research Council of Australia.
Body composition (lean mass and fat mass) was determined by EchoMRI-900 Body Composition Analyser (EchoMRI Corporation Pte Ltd, Singapore) in accordance with the manufacturer’s instructions.

The subject of another data set is soleus muscles. The experiment in a line: 14C-palmitate oxidation and incorporation into TAG in isolated soleus muscles of treated mice. In kind it is in vivo. The procedure:
After a 30 min pre-incubation, muscles were transferred into vials containing 0.5 mCi/mL of [1-^14C]-palmitate in modified Krebs-Henseleit buffer for another 1 h. The reaction was stopped by removal of the muscles and addition of 1 M perchloric acid to the reaction mixture. ^14C-labelled CO2 was quantified as described above. The muscles were blotted dry and snap frozen in liquid nitrogen for subsequent lipid extraction and TLC. Muscles were homogenized using a Polytron (Kinematica, Littau-Lucerne, Switzerland) in 1.5 mL 2:1 chloroform-methanol (v/v). […] The upper aqueous phase was used to quantify ASM, and the lower organic phase was collected and dried under stream of N2, then reconstituted in hexane and spotted on a Silica Gel 60 F254 TLC plate. The TLC plate was developed in hexane/diethyl ether/glacial acetic acid (85:15:1), then air dried. TAG bands were visualised using iodine vapour staining, using an external standard to mark their position, then scraped into vials and quantified by liquid scintillation counting.

The subject of a further data set is SkM. The experiment in a line: Western blotting of SkM (respiratory complex subunits, PGC-1α, AMPK, ACC). In kind it is in vivo, mice. The procedure: Tissues were homogenized in RIPA buffer (100 mM NaCl, 10 mM Tris, pH 7.4, 1% Triton X-100, 0.5% sodium deoxycholate, 0.1% SDS, 1 mM EDTA, 10% Glycerol) containing complete protease inhibitor cocktail (Roche) and phosphatase inhibitors (3 mM β-glycerophosphate, 1 mM sodium orthovanadate, 5 mM sodium fluoride) by bead-beating in a Precellys 24 at 4 °C. Extracts were centrifuged at 6500 rpm for 10 min at 4 °C. Supernatant was collected and protein concentrations determined with the Bicinchoninic acid (BCA) assay (Thermo Scientific). Protein lysates (15 μg) were resolved on SDS-PAGE, transferred to polyvinylidene difluoride (PVDF) membrane, and immunoblotted with antibodies against Complex I subunit NADH dehydrogenase (#ab110242, Abcam), Complex II succinate dehydrogenase subunit B (#ab14714, Abcam), Complex III subunit Core 2 Ubiquinol-cytochrome c reductase (#ab14745, Abcam), Complex IV Cytochrome c oxidase (#11967S, Cell Signaling Technology), Complex V ATP synthase α subunit (#ab14748, Abcam), PGC1α (#AB3242, Merck Millipore), AMPKα (#2532S, Cell Signaling Technology), phospho- AMPKα (Thr172) (#2535S, Cell Signaling Technology), ACC (#3662S, Cell Signaling Technology), phospho-ACC (Ser 79, which also detects Ser 212 in ACC2, the predominant ACC isoform in SkM) (#3661S, Cell Signaling Technology) and pan 14-3-3 (#sc-629, Santa Cruz Biotechnology). All antibodies were used at a dilution of 1:1000. A common loading control was included on every gel to account for variation in relative band intensities between different blots. Antibody-antigen binding was detected using ECL Reagent (GE Healthcare) and imaged on a Fujifilm Las-4000 CCD camera. Bands were quantified by densitometry with Fuji ImageQuantTL software. Full images of blots in Fig. 6 are shown in Supplementary Figure 12.
Western blots for phospho-AMPK (Thr172), total AMPK, phospho-ACC (Ser79), and total
ACC in vehicle- or P053-treated mice on a chow or HFD. Denistometry for phospho-
AMPK/total AMPK and phospho-ACC/total ACC is shown (n = 10 mice per group).
(1 picture or pasted object on this page, not shown here)
On the technique in general: Immunoblotting shows a protein as a band on a membrane.

The subject of another data set is liver. Briefly: Mitochondrial markers in liver (Western blots, citrate synthase, βHAD). The conditions noted are these: mouse, in vivo. Also noted: species or system mice.
For another data set, the system named is PPAR alpha. Briefly: PMP70 protein expression in liver lysates (PPAR alpha agonism). It is filed as in vivo, mice.

“Also recorded” adds a separate entry of the source.

One compound from paper PMC6104039 (Nature Communications, 2018) can be followed below.

Sequence of recombinant human sphingosine kinase 1 (Q9NYA1 whole entry): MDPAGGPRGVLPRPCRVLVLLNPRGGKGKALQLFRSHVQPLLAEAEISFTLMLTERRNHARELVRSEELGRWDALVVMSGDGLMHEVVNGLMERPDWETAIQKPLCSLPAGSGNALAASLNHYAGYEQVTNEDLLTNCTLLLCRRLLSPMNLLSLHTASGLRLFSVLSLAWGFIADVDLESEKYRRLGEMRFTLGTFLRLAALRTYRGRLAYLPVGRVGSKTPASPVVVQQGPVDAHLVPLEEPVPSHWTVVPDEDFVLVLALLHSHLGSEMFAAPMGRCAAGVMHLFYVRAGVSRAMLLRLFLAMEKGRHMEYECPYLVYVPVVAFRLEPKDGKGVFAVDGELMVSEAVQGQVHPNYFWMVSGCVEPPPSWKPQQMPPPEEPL
Excerpt for PPAR alpha: For PPAR alpha we have examined the protein expression of
PMP70 (an abundant peroxisomal m embrane protein) in liver lysates, as PPAR alpha is much more
highly expressed in liver and we have clear evidence (Supplementary Fig 6) that P053 distributes
into liver at levels that are higher that those present in skeletal muscle.
treated with a known PPAR alpha agonist WY14643 (WY) vs. vehicle (veh) controls shown on the
right of the gel as positive controls.

In general, half-life refers to the time needed for the level to fall by half in the phase considered. Higher therefore signals slow loss. Take `C[C@@](N)(CO)CCc1ccc(OCc2ccc(Cl)c(Cl)c2)cc1` [P053, (S)-2-amino-4-(4-(3,4-dichlorobenzyloxy)phenyl)-2-methylbutan-1-ol]: the “reduction in sphingosine kinase 1 activity” value in data set [1] is recorded as “did not inhibit; also recorded: does not inhibit; also recorded: no inhibitory activity”. For the same compound, the concentration at 6 weeks in data set [2] (C57BL6/J, mouse, plasma, oral, 5 mg/kg/day for 6 weeks) was about 300 nM. In data set [2] (C57BL6/J, mouse, plasma, single 5 mg/kg dose by oral gavage), this compound had a half-life of 28 h. Further, in data set [2] (C57BL6/J, mouse, plasma, single 5 mg/kg dose by oral gavage, read-out: time of maximal plasma concentration), the Tmax came to 4 h. Moreover, the maximal plasma concentration in data set [2] (single 5 mg/kg dose by oral gavage) is recorded as 20 nM. For the same compound, the “whole-body fat mass and weight of individual white adipose depots” value in the data set on C57BL6/J mice (HFD, 5 mg/kg, 4–6 weeks) is reported as “significantly reduced”. Besides, the “reduction of the gain in fat pad mass on a HFD” value with C57BL6/J mice (both fat pads (inguinal and epididymal)) worked out at 44%. Also, in the data set on C57BL6/J mice (with P053 treatment), the “gain in epididymal fat pad weight, HFD compared to chow” value was 0.29 g and the “gain in inguinal fat pad weight, HFD compared to chow” value was determined as 0.15 g. Moreover, the “oxidation of 14C-palmitate in soleus muscles” value in the data set on soleus muscles (2 weeks, 5 mg/kg) is “significantly increased”. The “incorporation of 14C-palmitate into TAG” value with soleus muscles (2 weeks, 5 mg/kg, 1 h incubation) is given as “unchanged”. Also, in the data set with soleus muscles (P053 treatment), the “increase of the rate of palmitate oxidation in muscle” value is listed as 23%. For the same compound, in the data set with SkM, the “phosphorylation of AMPK or acetyl-CoA carboxylase (ACC)” value is given as “no effect”, the “protein expression of Pgc-1α” value was “significantly increased” and the “respiratory complexes at the protein level” value is recorded as “up-regulated”. For the same compound, the “mitochondrial markers in liver” value in the data set on liver is on record as “no increase”. The “expression of PMP70” value in the data set on PPAR alpha is recorded as “unaffected”.
